Experiments:
RT97 + RGC axons = test: Protection of retinal ganglion cell axons from degeneration following optic nerve transection (Table VIII); type: in vivo; settings: ± SEM
Description: Efficacy of representative compounds from different immunophilin ligand series in protecting retinal ganglion cell axons from degeneration following optic nerve transection is set forth in Table VIII

[1] = system: retinal ganglion cells and optic nerve axons; test: Optic nerve transection vision loss model, 14 or 28 day treatment, sacrifice 90 days after transection; type: in vivo, Sprague Dawley rats; settings: 28 days treatment; 90 days after ONT; cross sectional area × myelin density
Description: All eyes and optic nerves stumps were removed.

[2] = system: retina (INL, GCL, ONL, OPL, PR); test: Streptozotocin induced diabetes: retinal neovascularization and neuron loss; type: in vivo; settings: 28 day treatment beginning 8 weeks after onset of streptozotocin diabetes
[3] = system: retinal ganglion cells, optic nerve axons and myelin; test: Retinal ischemia (intraocular pressure raised above arterial pressure), examined 28 days later; type: in vivo, adult rats
Description: Retinal ganglion cells were retrogradely labeled in adult rats by bilateral injection of fluorogold in their lateral geniculate nuclei. Labeled ganglion cells in the normal rat retina appear as white profiles against the dark background (FIG. 1A). Complete retinal ischemia was produced by infusing normal saline solution into the retinal vitreous cavity of each eye until the intraocular pressure exceeded arterial blood pressure. 28 days after the ischemic episode extensive degeneration of retinal ganglion cell was evidenced by massive reduction in the density of fluorogold labeled cells (FIG. 1B).
Optic nerves from vehicle treated cases examined 28 days after a 1 hour retinal ischemic episode are characterized by a decreased density of optic nerve axons and the appearance of numerous degenerating myelin figures (bright white filled circles).

[4] = system: retinal ganglion cells and their axons; test: Example 15: optic nerve transection, 28 days GPI-1046, sacrifice at 90 days; type: in vivo, Sprague Dawley rats; settings: 10 mg/kg/day s.c. for 28 days; 90 days after transection; RT97
Description: Transection of the mammalian optic nerve results in a brief period of abortive regeneration, but the majority of axotomized neurons die and the axons from many persisting ganglion cells die back beyond the optic nerve head.

[5] = Clearance (Table VIII comments); type: in vitro ADME

| SMILES | RT97 +RGC axon density 14 days after ON transection (% ON axons rescued) (RT97 + RGC axons) | further results |
| --- | --- | --- |
| CCC(C)(C)C(=O)C(=O)N1CCC[C@H]1C(=O)CCCCc1cccnc1 [J] | 15.8%±4.8% SEM | – |
| O=C(OCCCc1cccnc1)[C@@H]1CCCN1C(=S)NC1CCCCC1 [I] | 23.8%±5.3 SEM | – |
| CCC(C)(C)C(=O)C(=O)N1CCC[C@H]1C(=O)OCCCc1cccnc1 [GPI 1046, 3-(3-pyridyl)-1-propyl (2s)-1-(3,3-dimethyl-1,2-dioxopentyl)-2-pyrrolidinecarboxylate] | 60.5%±3.9 SEM | Distal optic nerve myelin basic protein Density: myelin preservation [1]: ~99 % myelin preservation; neovascularization in PR, ONL, OPL and INL [2]: reduced neovascularization; protection of retinal ganglion cells after retinal ischemia ([3]; 10 mg/kg s.c. 1 hour prior and 10 mg/kg/day for next four days, 28 days after ischemia, fluorogold labeled cells): noticeable protection of a large proportion of the vulnerable ganglion cell population; protection of optic nerve axons after retinal ischemia ([3]; same cases, toluidine blue staining, 28 days after 1 hour ischemia): protected the majority of optic nerve exons from degeneration; preservation of axons in the proximal stump [4]: preserved the axons of virtually all protected neurons |
| CCC(C)(C)C(=O)C(=O)N1CCC[C@H]1C(=O)SCCC(c1ccccc1)c1ccccc1 [M] | −6.3%+3.9% SEM | – |
| O=C(SCCCc1ccccc1)[C@@H]1CCCN1S(=O)(=O)Cc1ccccc1 [C] | 60.4%±3.1% SEM | – |
| O=C(SCCCc1ccccc1)[C@@H]1CCCN1C(=O)NC12CC3CC(CC(C3)C1)C2 [B] | 100.0%±5.2% SEM | – |
| CCC(C)(C)C(=O)C(=O)N1CCCC[C@H]1C(N)=O [H] | 30.3%±8.0% SEM | – |
| CCC(C)(C)C(=O)C(=O)N1CCCC[C@H]1C(=O)O [G] | 34.0%±4.8% SEM | – |
| CCC(C)(C)C(=O)C(=O)N1CCC[C@H]1C(=O)O [L] | 7.8%±3.0% SEM | Clearance [5]: 12.5 µL/min |
